Test results from PMC10979003, “Development and crystal structures of a potent second-generation dual degrader of BCL-2 and BCL-xL” (Nature Communications, 2024).
Like-named read-outs stand apart in the source and are kept apart here.

Assays:
BCL-xL = molecular target: T1, BCL-xL (Homo sapiens, UniProt Q07817); experiment: Immunoblot degradation of BCL-xL in Jurkat cells; assay type: cell-based; conditions: for DC50: 16 h treatment, immunoblot
T1 construct: endogenous in cells; host or cells: Jurkat (ATCC TIB-152)
Description: The data are presented as mean ± s.d. from three replicate cell cultures in a representative experiment for Jurkat cells. h Left, WH244 induces polyubiquitination of WT, K22R BCL-2 and to some extent K17R but not K17/22R BCL-2 in 293T cells. 293T cells were co-transfected as indicated with Flag-BCL−2 WT or mutants and HA-tagged ubiquitin (HA-Ub) plasmids. After 36 h, cells were pretreated with MG132 (10 µM) for 2 h and then treated with or without WH244 (1 μM) for 5 h. The Flag-tagged proteins were immunoprecipitated (IP) and immunoblotted with HA or Flag antibody. Right, The input blot for this assay. Data are a representative of two independent experiments. Source data are provided as Source Data file.
Cells were collected, washed once with ice-cold phosphate-buffered saline, pH 7.2 (PBS, cat. no. 20012027; Thermo Fisher Scientific) and lysed in RIPA lysis buffer (Cat. No. BP-115DG, Boston Bio Products, Ashland, MA, USA) supplemented with protease and phosphatase inhibitor cocktails (Cat. No. PPC1010, Sigma-Aldrich, St. Louis, MO, USA) through sonication. The samples were centrifuged at 15,000 × g for 5 min and the supernatants were transferred into a new tube. The protein concentration in the supernatants was determined using the Pierce BCA protein Assay kit (cat. no. 23225, Thermo Fisher Scientific). The protein concentration was normalized, and the samples were reduced in 4× Laemmli’s SDS-sample buffer (cat. no. BP-110R, Boston Bio Products) and denatured at 95 °C for 5 min. An equal amount of protein samples (20–40 μg per lane) were resolved using precast 4–20% Tris-glycine gels (Mini-PROTEAN TGX, cat. no. 456–1094, Bio-Rad), and resolved proteins were transferred onto 0.2-μm pore size polyvinylidene difluoride (PVDF) blotting membranes (cat. no. LC2002, Thermo Fisher Scientific) using mini trans-blot electrophoretic transfer cell (Bio-Rad). The membranes were blocked with non-fat dry milk (5% wt/vol) in 1×Tris- buffered saline-Tween-20 (TBST) for 1 h at room temperature, and were subsequently probed with primary antibodies at a pre-determined optimal concentration in non-fat dry milk (5% wt/vol in TBST) overnight at 4 °C. The membranes were washed three times (15 min each) in TBST and then incubated with horse radish peroxidase (HRP)-conjugated secondary antibodies for 1 h at room temperature. Following sufficient washing with TBST, the membranes were exposed with ECL Western Blotting Substrate (Bio-Rad), and the signal was detected using the ChemiDoc MP Imaging System (Bio-Rad) and quantified using the ImageJ (v1.53a) software from NIH. Antibodies were purchased from Cell Signaling Technologies (CST) and the dilutions are as follows: BCL-xL (Cat. No. 2762S, 1:1000) and BCL-2 (Cat. No. 2870S, 1:1000). β-actin antibody was purchased from MP Biomedicals (Cat. No. 8691001, 1:20,000).

WT BCL-2 = molecular target: T2, WT BCL-2 (Homo sapiens, UniProt P10415); experiment: AlphaScreen displacement binary binding assay, WT BCL-2
T2 construct: BCL-xL (aa 2-212) and BCL-2 (aa 1-207) transformed cells were grown in LB broth; made in house; host or cells: E. coli BL21 (DE3) codon plus
Description: To test the binary/ternary binding affinities of compounds to BCL-2/BCL-xL, AlphaScreen displacement binding assay was performed to test the capabilities of testing compounds to displace a Biotin-tagged Bim (Biotin-[…]) or Bad (Biotin-[…]) from BCL-2 or BCL-xL for BCL-2 and BCL-xL binding affinities, respectively. All reagents were diluted in assay buffer of 25 mM HEPES, pH 7.5, 150 mM NaCl, 0.1% BSA, and 0.005% tween 20 prior incubation. To a 96-well PCR plate (VWR, Cat. No. 82006-636) was added 10 μL Biotin-tagged Bim (15 nM for WT or 50 nM for mutants) or Bad (15 nM for WT or 50 nM for mutants), 10 μL series diluted compounds solution (2 or 3 or 4× dilution), and 10 μL self-made 6×His tagged BCL-2 WT or mutants (25 nM WT or 50 nM mutants) or 10 μL self-made BCL-xL WT and mutants (10 nM WT or 50 nM mutants). After incubating at room temperature for 30 min, 5 µL of 160 μg/mL of anti-6×His acceptor beads (PerkinElmer, Cat. No. AL128M) was added and the mixture was incubated at room temperature for 15 min. 5 µL of 160 μg/mL of streptavidin donor beads (PerkinElmer, 6760002) was then added under subdued light and the mixture was incubated at dark for 30 min before being transferred to two adjacent wells (17 µL each) of 384-well white OptiPlate (PerkinElmer, Cat. No. 6008280). The luminescence signal was detected on a Biotek’s Synergy Neo2 multimode plate reader installed with an AphaScreen filter cube. The Ki values of each compounds were calculated by fitting data into the “Binding-competitive, One site-Fit Ki” function in GraphPad Prism (9.2.0) based on concentrations of Biotin–peptide used and experimentally determined Kd values of each 6×His protein &&&and Biotin–Peptide pair.

[1] = mean ± s.d., n=3, read-out: Ki (nM, n=3), BCL-2 WT
[2] = response letter, Supplementary Fig. 11, read-out: Ki, binary complex with BCL-2

T1 sequence (Q07817 whole entry): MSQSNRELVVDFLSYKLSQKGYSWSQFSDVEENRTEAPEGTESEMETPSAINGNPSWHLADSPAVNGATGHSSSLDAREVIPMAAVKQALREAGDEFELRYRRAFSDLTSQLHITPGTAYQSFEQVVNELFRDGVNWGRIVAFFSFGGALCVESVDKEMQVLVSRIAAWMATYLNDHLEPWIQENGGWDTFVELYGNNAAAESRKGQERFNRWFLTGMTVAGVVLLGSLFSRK
T2 sequence (P10415 1-207): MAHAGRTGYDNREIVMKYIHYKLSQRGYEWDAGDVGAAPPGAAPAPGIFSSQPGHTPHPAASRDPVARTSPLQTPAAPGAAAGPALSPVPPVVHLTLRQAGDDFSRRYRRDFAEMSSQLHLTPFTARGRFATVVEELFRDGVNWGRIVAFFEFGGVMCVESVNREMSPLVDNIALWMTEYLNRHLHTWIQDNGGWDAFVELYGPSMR

SMILES | DC50 (BCL-xL; Jurkat cells) [nM] | Kd (WT BCL-2; Supplementary Fig. 11) [nM] | Ki (WT BCL-2; [1]) [nM] | Ki (WT BCL-2; [2]) [nM] | Earliest time at which BCL-xL degradation is seen (BCL-xL; 0.1 μM WH244, Jurkat cells) [h] | Time to nearly complete degradation of BCL-xL (BCL-xL; 0.1 μM WH244, Jurkat cells) [h] | Time for BCL-xL level to recover to pretreatment level after removal of degrader (BCL-xL; 0.1 μM WH244 for 16 h, then fresh medium, Jurkat cells) [h] | DC50 fold better than 753b (BCL-xL) (BCL-xL; Jurkat cells, 16 h)
Cc1ncsc1-c1ccc(C(C)NC(=O)C2CC(O)CN2C(=O)C(NC(=O)CCCCCCC(=O)N2CCN(CC3(C)CCC(c4ccc(Cl)cc4)=C(CN4CCN(c5ccc(C(=O)NS(=O)(=O)c6ccc(NC(CCN7CCOCC7)CSc7ccccc7)c(S(=O)(=O)C(F)(F)F)c6)cc5)CC4)C3)CC2)C(C)(C)C)cc1 (stereo not drawn) [753b] | 3.7 | ~23.4 | 24.9 ± 5.4 | 23.4 | – | – | – | –
Cc1ncsc1-c1ccc([C@H](C)NC(=O)[C@@H]2C[C@@H](O)CN2C(=O)[C@@H](NC(=O)CN2CCN(CC(=O)N3CCN(C[C@]4(C)CCC(c5ccc(Cl)cc5)=C(CN5CCN(c6ccc(C(=O)NS(=O)(=O)c7ccc(N[C@H](CCN8C[C@@H]9C[C@H]8CO9)CSc8ccccc8)c(S(=O)(=O)C(F)(F)F)c7)cc6)CC5)C4)CC3)CC2)C(C)(C)C)cc1 [WH244] | 0.6 | ~3.1 | 3.5 ± 0.5 | 3.1 | 1 | 4 | 24 to 48 | ~ 6.2 fold
